The subject of this assay is p38. As to the kind of experiment: p38 activation immunoblot in TCC-Sup cells after doxorubicin. The format is cell-based, human. The following applies: doxorubicin treatment, FIG. 7A. The procedure:
FIG. 7. Doxorubicin-induced cell death of TCC-Sup carcinoma cells. (A) p38 activation in response to doxorubicin treatment. TCC-Sup cells were seeded and treated with doxorubicin for the indicated time points. After cell lysis, p38 activation was assessed by immunoblotting cell extracts with anti-phospho-p38 antibody and reprobing of the same filters with anti-p38 antibody. (B) Blockade of HB-EGF function enhances cell-death in response to doxorubicin. Cells were treated for 72 h with 10 μM doxorubicin and 10 μg/mL Crm197 every 24 h as indicated. After collection of cells in assay buffer, nuclei were stained with PI and analyzed by flow cytometric analysis.
Cells were lysed and proteins immunoprecipitated as described before (Daub et al., 1997). Prior to lysis, cells grown to 80% confluence were treated with inhibitors and agonists as indicated in the figure legends and then lysed for 10 min on ice in buffer containing 50 mM HEPES, pH 7.5, 150 mM NaCl, 1% Triton X-100, 1 mM EDTA, 10% glycerol, 10 mM sodium pyrophosphate, 2 mM sodium orthovanadate, 10 mM sodium fluoride, 1 mM phenylmethylsulfonyl fluoride, and 10 μg/mL aprotinin. Lysates were precleared by centrifugation at 13,000 rpm for 10 min at 4° C. […] Phosphotyrosine was detected with the 4G10 monoclonal antibody (UBI, Lake Placid, N.Y.). […]
Background: Immunoblotting shows a protein as a band on a membrane.

As to `COc1cccc2c1C(=O)c1c(O)c3c(c(O)c1C2=O)C[C@@](O)(C(=O)CO)C[C@@H]3O[C@H]1C[C@H](N)[C@H](O)[C@H](C)O1` [doxorubicin], the p38 activation entry was “induces p38 activation”.

The values above are taken from patent US20060148694A1, “Inhibition of stress-induced ligand-dependent egfr activation” (Max-Planck-Gesellschaft zur Foerderung der Wessenschaften. …, priority 2003, published 2006).
